Drawing on PubChem BioAssay (NCI), this text covers TGI and GI50 for 9 compounds.

Test systems include SR leukemia; OVCAR-8 ovarian; NCI-H522 lung; PC-3 prostate; CAKI-1 renal; COLO 205 colon; MCF7 breast; MDA-MB-435; SK-MEL-5 melanoma; HCT-116 colon.
Common to all, as to experiment: NCI tumour cell line growth inhibition, 48 h

Values joined by “and” are separate entries in the source; they are usually repeats but may differ in a detail not shown here. Identical values can stand only once.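 The compound was tested at five concentrations on cells cultured in 96-well plates, with a 48-hour exposure period. GI50 = concentration required for 50% inhibition of growth. TGI marks complete inhibition of growth.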

`C=C1C[C@H]2C=Nc3cc(OCCCOc4cc5c(cc4OC)C(=O)N4CC(=C)C[C@H]4C=N5)c(OC)cc3C(=O)N2C1`: the TGI with SR leukemia was 0.218 µM; in the assay on OVCAR-8 ovarian, more than 18.4 µM; in the assay on NCI-H522 lung, 0.0309 µM; in the assay with PC-3 prostate it was 3.13 µM; in the assay on COLO 205 colon, 0.0343 µM; in the assay with MCF7 breast, 41.3 µM. Moreover, the TGI in the assay with MDA-MB-435 is 0.0339 µM and < 0.215 µM. Also, the GI50 was 0.0212 µM and < 0.0138 µM in the assay with PC-3 prostate; 0.0113 µM with CAKI-1 renal; 0.00546 µM with COLO 205 colon; 0.0134 µM and < 0.0148 µM with MDA-MB-435.

As for `NC(N)=N/N=C/c1c(-c2ccsc2)nc2n1CCS2`, the GI50 with SR leukemia was 12.1 µM; in the assay on OVCAR-8 ovarian it was 49 µM; with NCI-H522 lung it was 39.3 µM; in the assay on PC-3 prostate it was 17.5 µM; with SK-MEL-5 melanoma, 20 µM; with COLO 205 colon, 19.8 µM. For the same compound, the GI50 with MCF7 breast was 18 µM; with HCT-116 colon, 14.3 µM; in the assay with MDA-MB-435, 19.8 µM. For the same compound, the TGI in the assay with SR leukemia was 28.8 µM; in the assay with OVCAR-8 ovarian, more than 100 µM; in the assay with NCI-H522 lung it was more than 100 µM; in the assay with PC-3 prostate, 39.2 µM; in the assay with SK-MEL-5 melanoma, 41.4 µM; in the assay on COLO 205 colon it was 48.5 µM. Further, the TGI is 50.2 µM in the assay on MCF7 breast, 27.3 µM in the assay on HCT-116 colon and 47.9 µM in the assay with MDA-MB-435.

In the case of `O=C(CS(=O)(=O)c1nc2ccccc2nc1-c1ccccc1)Nc1ccc(F)cc1`, the GI50 is 94.3 µM in the assay on OVCAR-8 ovarian; 48.2 µM in the assay on NCI-H522 lung; 26 µM with PC-3 prostate; more than 100 µM with CAKI-1 renal; 23.9 µM in the assay on SK-MEL-5 melanoma; 65.1 µM in the assay on COLO 205 colon. The GI50 was 43.1 µM with MCF7 breast, 25.7 µM with HCT-116 colon and 88 µM in the assay on MDA-MB-435. Also, the TGI in the assay on OVCAR-8 ovarian is more than 100 µM; with NCI-H522 lung, more than 100 µM; with PC-3 prostate it was more than 100 µM; with CAKI-1 renal, more than 100 µM; with SK-MEL-5 melanoma it was 94.6 µM; in the assay on COLO 205 colon it was more than 100 µM. Also, the TGI in the assay with MCF7 breast, with HCT-116 colon and in the assay on MDA-MB-435 was more than 100 µM each time.

On to `Cn1cc(/C=C\[N+](=O)[O-])c2ccccc21`, for which the GI50 was 26.9 µM in the assay with OVCAR-8 ovarian; more than 100 µM in the assay on NCI-H522 lung; 35.5 µM in the assay on PC-3 prostate; 66.8 µM with CAKI-1 renal; 14.8 µM in the assay on SK-MEL-5 melanoma; 42.3 µM with COLO 205 colon. Besides, the GI50 in the assay on MCF7 breast is 21 µM; in the assay with HCT-116 colon it was 19 µM; with MDA-MB-435, 27.7 µM. Moreover, the TGI in the assay on OVCAR-8 ovarian is 86.1 µM; with NCI-H522 lung it was more than 100 µM; with PC-3 prostate, more than 100 µM; in the assay on CAKI-1 renal it was more than 100 µM; in the assay with SK-MEL-5 melanoma it was 31.6 µM; with COLO 205 colon, more than 100 µM. Moreover, the TGI in the assay on MCF7 breast was 80.6 µM; in the assay with HCT-116 colon, 43 µM; with MDA-MB-435 it was 84.7 µM.

As to `CCOC(=O)CSc1cc(Cl)c(C)cc1S(=O)(=O)/N=C(/N=C/c1ccc([N+](=O)[O-])s1)NNC`, the GI50 in the assay on OVCAR-8 ovarian was 32.7 µM; with NCI-H522 lung, 30.2 µM; in the assay on PC-3 prostate, 25 µM; in the assay with CAKI-1 renal, 17.6 µM; in the assay with SK-MEL-5 melanoma, 15.2 µM; in the assay on COLO 205 colon, 16 µM. Further, the GI50 with MCF7 breast was 32.6 µM; in the assay on HCT-116 colon it was 13.5 µM; with MDA-MB-435, 16.3 µM. Besides, the TGI with OVCAR-8 ovarian is 80.2 µM; with NCI-H522 lung, 79.7 µM; in the assay on PC-3 prostate, more than 100 µM; in the assay on CAKI-1 renal it was 49.3 µM; in the assay with SK-MEL-5 melanoma, 29 µM; in the assay on COLO 205 colon, 34.8 µM. Further, the figures for the TGI in the assay on MCF7 breast, with HCT-116 colon and in the assay on MDA-MB-435 were more than 100 µM, 26.3 µM and 37.6 µM, respectively.

Consider `Oc1ccc(Br)cc1C=Nc1cccc(C(F)(F)F)c1`, for which the TGI with OVCAR-8 ovarian is more than 100 µM; in the assay with NCI-H522 lung, more than 100 µM; with PC-3 prostate it was 33.3 µM; in the assay on CAKI-1 renal, more than 100 µM; in the assay on SK-MEL-5 melanoma it was more than 100 µM; in the assay with COLO 205 colon, more than 100 µM. Moreover, the TGI in the assay with MCF7 breast, with HCT-116 colon and in the assay on MDA-MB-435 was more than 100 µM throughout.

On to `C[C@@]1([C@H](OC(=O)c2ccccc2)C(N)=O)CO1`, for which the GI50 in the assay on OVCAR-8 ovarian is 20.1 µM; in the assay with NCI-H522 lung, 22.2 µM; with PC-3 prostate it was 16.6 µM; in the assay on CAKI-1 renal it was 10.7 µM; with SK-MEL-5 melanoma, 15.1 µM; in the assay on COLO 205 colon it was 22.5 µM. Moreover, the GI50 was 32 µM with MCF7 breast, 17.5 µM with HCT-116 colon and 17.8 µM in the assay on MDA-MB-435. In addition, the TGI amounted to 46.1 µM in the assay on OVCAR-8 ovarian; 76.5 µM in the assay with NCI-H522 lung; 52.1 µM in the assay on PC-3 prostate; 31.5 µM in the assay on CAKI-1 renal; 31.3 µM in the assay on SK-MEL-5 melanoma; 43 µM in the assay on COLO 205 colon. Moreover, the TGI in the assay with MCF7 breast is more than 100 µM; with HCT-116 colon, 58.6 µM; in the assay on MDA-MB-435 it was 36 µM.

For `COc1cccc(/C=C/C(=O)c2ccc3cc(OC)ccc3c2)c1`, the GI50 was 10.1 µM in the assay with SR leukemia; 10.6 µM in the assay with OVCAR-8 ovarian; 18.3 µM in the assay on PC-3 prostate; 16.4 µM in the assay with CAKI-1 renal; 9.21 µM in the assay on SK-MEL-5 melanoma; 8.13 µM in the assay with COLO 205 colon. Moreover, the figures for the GI50 in the assay with MCF7 breast, in the assay with HCT-116 colon and in the assay on MDA-MB-435 were 15.4 µM, 9.21 µM and 7.38 µM, respectively. In addition, the TGI in the assay on SR leukemia was more than 50 µM; in the assay with OVCAR-8 ovarian, 33.3 µM; with PC-3 prostate, more than 50 µM; in the assay with CAKI-1 renal it was more than 50 µM; in the assay on SK-MEL-5 melanoma it was 18.2 µM; with COLO 205 colon, 17 µM. Moreover, the TGI with MCF7 breast was more than 50 µM; with HCT-116 colon it was 16.2 µM; with MDA-MB-435, 19 µM.

On to `COc1cnc2c(c1)C(=O)c1c-2n(CCCNC2=NCCS2)c(=O)c2cc(F)ccc12`, for which the GI50 is 0.0499 µM in the assay with SR leukemia; 0.132 µM in the assay on OVCAR-8 ovarian; 0.0381 µM in the assay with NCI-H522 lung; 0.208 µM in the assay with PC-3 prostate; 0.342 µM with SK-MEL-5 melanoma; 0.201 µM in the assay with COLO 205 colon. Moreover, the figures for the GI50 with MCF7 breast, in the assay on HCT-116 colon and with MDA-MB-435 were 0.033 µM, 0.0825 µM and 0.75 µM, respectively. In addition, the TGI in the assay with SR leukemia turned out to be 2.04 µM; in the assay with OVCAR-8 ovarian, 4.72 µM; in the assay on NCI-H522 lung, 1.28 µM; in the assay with PC-3 prostate it was 18.7 µM; with SK-MEL-5 melanoma, 1.44 µM; in the assay on COLO 205 colon, 1.91 µM. The TGI in the assay with MCF7 breast turned out to be 1.66 µM; in the assay with HCT-116 colon, 1.83 µM; with MDA-MB-435, 2.37 µM.
